Test results reported in publication PMC6832239, “The Effects of a Novel Series of KTTKS Analogues on Cytotoxicity and Proteolytic Activity” (Molecules, 2019).
Entries after “also recorded” stand apart in the source; their conditions may differ. Like-named read-outs stand apart in the source and are kept apart here. Residues, ends and D or L forms follow the SMILES beside them.

Experiments:
[1] = biological target: T1, plasmin (Homo sapiens, UniProt P00747); test: Amidolytic activity of plasmin (chromogenic substrate H-D-Val-Leu-Lys-pNA); assay type: biochemical
T1 construct: purchased Chromogenix (Milano, Italy)
Experimental: (§1) The determination of amidolytic activity was performed as previously described by Okada. A detailed description of the method is given below: 0.2 mL of the examined peptides (0.15 M NaCl as contro), a buffer, and 0.1 mL of enzyme solution were mixed. The final peptide concentrations were: 0.2 mM, 2 mM, and 20 mM. The mixture was incubated at 37 °C for 3 min; then the synthetic substrate solution was added in the same buffer. After 20 min of incubation, the reaction was stopped by adding 0.1 mL of 50% acetic acid and the absorbance of the released p-nitroaniline was measured at 405 nm. The mean values from three independent experiments done in duplicate are presented. A method error of 5% was adopted as statistical error. IC50 value was considered as the concentration of inhibitor that reduces absorbance by 50%, compared with absorbance measured under the same conditions without an inhibitor. IC50 was calculated mathematically by extrapolation using a linear plot. IC50 values are presented in Table 1 and Table 2, and graphically in Figure 1.
(§2) The buffers and the enzyme solutions included: • Tris buffer—0.6 mL (pH 8.8), enzyme: urokinase (50 units/mL), synthetic substrate: pyro-Glu-Gly-Arg-pNA·HCl (0.1 mL, 3 mM); • Tris buffer—0.5 mL (pH 8.4), enzyme: thrombin (1 units/mL), synthetic substrate: H-D-Phe-Pip-Arg-pNA (0.2 mL, 0.75 mM); • Tris buffer—0.5 mL (pH 7.4), enzyme: plasmin (0.4 units/mL), synthetic substrate: H-D-Val-Leu-Lys-pNA (0.2 mL, 3 mM); • Borate buffer—0.5 mL (pH 7.5), enzyme: trypsin (0.4 units/mL), synthetic substrate: Bzl-L-Arg-pNA·HCl (0.2 mL, 8 mM); • Tris buffer—0.6 mL (pH 9.0), enzyme: kallikrein (3 units/mL), synthetic substrate: H-D-Val-Leu-Arg-pNA·2HCl (0.1 mL, 75 mM); • Tris buffer—0.6 mL (pH 8.4), enzyme: t-PA ([…]), synthetic substrate: H-D-Ile-Pro-Arg-pNA (0.1 mL, 10 mM) • Tris buffer—0.6 mL (pH 9.0), enzyme: chymotrypsin (0.4 units/mL), synthetic substrate: Suc-Phe-pNA (0.2 mL, 8 mM)

[2] = biological target: T2, urokinase (Homo sapiens, UniProt P00749); test: Amidolytic activity of urokinase (chromogenic substrate pyro-Glu-Gly-Arg-pNA); assay type: biochemical
T2 construct: purchased Sigma (Schnelldorf, Germany)
Experimental: as §1, §2

[3] = biological target: T3, thrombin (Bos taurus, UniProt P00735); test: Amidolytic activity of thrombin (chromogenic substrate H-D-Phe-Pip-Arg-pNA); assay type: biochemical
T3 construct: purchased Lubelska Wytwórnia Szczepionek (Lublin, Poland)
Experimental: The determination of amidolytic activity was performed as previously described by Okada. A detailed description of the method is given below: 0.2 mL of the examined peptides (0.15 M NaCl as contro), a buffer, and 0.1 mL of enzyme solution were mixed. The final peptide concentrations were: 0.2 mM, 2 mM, and 20 mM. The mixture was incubated at 37 °C for 3 min; then the synthetic substrate solution was added in the same buffer. […] The mean values from three independent experiments done in duplicate are presented. A method error of 5% was adopted as statistical error. […] IC50 was calculated mathematically by extrapolation using a linear plot.

[4] = Viability of fibroblast cells, MTT assay; assay type: cell-based, Human; conditions: human, primary dermal fibroblast cells
Experimental: (§3) Viability of fibroblast cells was examined with the use of the MTT assay. MTT, a yellow tetrazole, is reduced to purple formazan only in living cells. Absorbance of the coloured solution was measured by a spectrophotometer.
(§4) These studies were performed on primary dermal fibroblasts cells. The cells were maintained in DMEM supplemented with 10% fetal bovine serum (FBS), 2 mM glutamin, 50 U/mL penicillin and […] streptomycin at 37 °C in a 5% CO2 incubator. For experiments, cells cultures were plated at a density of 1 × 10^6/well in six-well culture plates (Costar, St. Louis, MO, USA) in 2 mL of growth medium. Cells reached about 80% of confluency at day 2 were used for the assays.
(§5) Toxicity of the tested substances was determined using an MTT [3-(4,5-dimethylthiazol-2-yl)-2,5-diphenyltetrazolium bromide)] assay. Palmitoyl and lipoyl peptides were dissolved in DMSO (dimethyl sulfoxide), the other peptides in DMEM, and added to the cell culture medium. Simultaneously, the same concentrations of DMSO without peptides were added to cells, serving as controls. The final peptide concentrations were: 1 μM, 10 μM, and 100 μM. After 24 h incubation, the cells cultured with the tested compounds were washed with phosphate-buffered saline (PBS) and then incubated for 4 h in 2 mL of MTT solution (5 mg/mL). After removing the medium, the cells were lysed in 200 μL of DMSO with 20 μL of Sorensen’s buffer (pH 10.5, 0.1 mol/L glycine with 0.1 mol/L NaCl). The absorbance of converted dye in living cells was measured at a wavelength of 570 nm. The mean values ± SD from three independent experiments done in duplicate are presented.

[5] = tested on: primary dermal fibroblasts cells; test: Viability of fibroblast cells, MTT assay; assay type: cell-based, Human; conditions: MTT, 1-100 μM, 24 h
Experimental: as §3, §4, §5

[6] = tested on: fibroblast cells; test: DNA biosynthesis, [3H] thymidine incorporation in fibroblasts; assay type: cell-based, Human; conditions: for DNA biosynthesis: 24 h, ± 2
Experimental: In the radioactive method of DNA measurement in the liquid sample, the radioactive activity of the sample was measured. This technique involves mixing a radioactive material with a scintillation fluid/liquid (which contains a scintillator), resulting in photon emission. This emission is counted by a suitable detector.
To examine the effect of the studied compounds on DNA biosynthesis of fibroblast cells, they were plated in 24-well tissue culture dishes at 1 × 10^5 cells per well with 1 mL of growth medium. The plates were incubated after 48 h with the examined peptides and 0.5 μCi of [^3H] thymidine (6.7 Ci/mmol) at 37 °C. The final peptide concentrations were: 10 μM, 50 μM, and 100 μM. After 24 h incubation, the cells were rinsed with PBS three times and twice with 5% trichloroacetic acid. To measure the radioactivity incorporated into DNA, the cells were solubilized with 1 mL of 0.1 M sodium hydroxide containing 1% SDS and an addition of scintillation liquid (9 mL) (https://www.perkinelmer.com/pl/category/scintillation-cocktails). Radioactivity was determined in a scintillation counter, i.e., Liquid Scintillation Analyzer Tri-Carb 2810 TR (Perkin Elmer, Waltham, MA USA)) with Quanto Smart TM software (Perkin Elmer).

[7] = tested on: Fibroblasts; test: Collagen biosynthesis, 5[3H]-proline incorporation in fibroblasts; assay type: cell-based, Human; conditions: 24 h, ± 2
Experimental: In collagen biosynthesis assays cells were counted in a haemocytometer and incorporation of a radioactive precursor 5[^3H]-proline into collagen was measured. Total protein synthesis was calculated from the sum of radioactivity of collagenase-resistant proteins and collagen digest.
Fibroblasts were cultured in six-well plates until confluence. Then they were incubated for 24 h in growth medium in the absence or presence of the tested peptides and 5[^3H]-proline (5 µCi/mL, 28 Ci/mM). The final peptide concentrations were: 10 μM, 50 μM and 100 μM. In accordance with the method proposed by Peterkofsky and Diegelmann, incorporation of the radioactive precursor into collagen was determined by digesting the proteins with purified Clostridium histolyticum collagenase. Finally, the monolayers were washed with sterile 10mM PBS, pH 7.4 four times, and cell membranes were disrupted using a sonicator. Aliquots of the cell homogenate were removed for protein measurement using the BCA™ Protein Assay Kit (Pierce, Waltham, MA USA). The results are shown as combined values for cell plus medium fractions.

[8] = amidolytic activity, Tris pH 7.4, 37 °C, IC50 by extrapolation using a linear plot, error 5%, read-out: IC50 Plasmin
[9] = amidolytic activity, Tris pH 8.8, 37 °C, IC50 by extrapolation using a linear plot, error 5%, read-out: IC50 Urokinase
[10] = amidolytic activity, Tris pH 8.4, 37 °C, IC50 by extrapolation using a linear plot, error 5%, read-out: IC50 Thrombin
[11] = 1 µmol/L, 24 h, MTT, ± 2, read-out: Viability of fibroblast cells
[12] = 10 µmol/L, 24 h, MTT, ± 2, read-out: Viability of fibroblast cells
[13] = 100 µmol/L, 24 h, MTT, ± 2, read-out: Viability of fibroblast cells

T1 sequence (P00747 581-810 limits assumed): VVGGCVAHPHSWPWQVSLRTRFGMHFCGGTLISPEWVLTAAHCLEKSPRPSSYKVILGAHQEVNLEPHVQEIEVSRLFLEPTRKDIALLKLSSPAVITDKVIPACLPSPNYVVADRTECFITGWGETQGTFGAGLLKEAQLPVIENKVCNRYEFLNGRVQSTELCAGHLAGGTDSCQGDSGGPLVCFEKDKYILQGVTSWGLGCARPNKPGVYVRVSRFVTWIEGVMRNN
T1 sequence (P00747 97-580 partner limits assumed): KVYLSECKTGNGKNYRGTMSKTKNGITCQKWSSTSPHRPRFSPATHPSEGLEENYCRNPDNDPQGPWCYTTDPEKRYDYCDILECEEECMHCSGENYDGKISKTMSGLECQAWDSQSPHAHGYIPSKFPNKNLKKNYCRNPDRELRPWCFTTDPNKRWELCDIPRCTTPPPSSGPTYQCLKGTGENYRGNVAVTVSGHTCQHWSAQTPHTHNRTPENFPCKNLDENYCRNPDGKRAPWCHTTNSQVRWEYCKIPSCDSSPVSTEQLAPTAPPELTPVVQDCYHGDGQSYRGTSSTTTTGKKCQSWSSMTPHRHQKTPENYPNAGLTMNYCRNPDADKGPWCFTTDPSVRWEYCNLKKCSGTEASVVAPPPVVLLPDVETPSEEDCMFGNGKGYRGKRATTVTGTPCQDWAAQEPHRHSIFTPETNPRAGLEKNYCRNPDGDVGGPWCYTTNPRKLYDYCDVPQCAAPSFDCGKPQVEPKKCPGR

Molecule | IC50 [1, 8] | IC50 [2, 9] | IC50 [3, 10] | viability at 24 h, 1 µmol/L [4, 11] | viability at 24 h, 10 µmol/L [4, 12] | viability at 24 h, 100 µmol/L [4, 13] | other results
Ac-KTTRS-NH2 [Peptide 14, Ac-Lys-Thr-Thr-Arg-Ser-NH2] | 5.34 ± 0.27 mM | 5.56 ± 0.28 mM | 2.95 ± 0.15 mM | 112% | 135% | 150% | cytotoxicity / cell growth effect on fibroblasts [5]: exhibited cell growth effects; also recorded: showed proliferative effect; also recorded: exhibited the effect of cell growth; DNA biosynthesis ([6]; 10 µmol/L): 114 % of Control; DNA biosynthesis ([6]; 50 µmol/L): 96 % of Control; DNA biosynthesis ([6]; 100 µmol/L): 127 % of Control; DNA synthesis ([6]; 10, 50, 100 μM): an increase in DNA synthesis was observed; Collagen biosynthesis ([7]; 10 µmol/L): 105 % of Control; Collagen biosynthesis ([7]; 50 µmol/L): 171 % of Control; Collagen biosynthesis ([7]; 100 µmol/L): 157 % of Control
Ac-RTTKS-NH2 [Peptide 30, Ac-Arg-Thr-Thr-Lys-Ser- NH2] | 5 ± 0.25 mM | 12.1 ± 0.6 mM | 1.59 ± 0.08 mM | 95% | 105% | 101% | 
Ac-KTTRS-OH [Peptide 10, Ac-Lys-Thr-Thr-Arg-Ser-OH] | 2.24 ± 0.11 mM |  | 2.89 ± 0.14 mM | 104% | 100% | 94% | IC50 ([2]; converted from IC50 of Table 1, read-out: -logIC50 Urokinase (converted)): 4.79 mM
Ac-KTTKS-OH [Peptide 2, Ac-Lys-Thr-Thr-Lys-Ser-OH] | 2.78 ± 0.14 mM | 3.88 ± 0.19 mM | 2.2 ± 0.11 mM | 98% | 88% | 82% | 
Ac-KTTKS-NH2 [Peptide 6, Ac-Lys-Thr-Thr-Lys-Ser-NH2] | 2.92 ± 0.15 mM | > 20 mM | 3.25 ± 0.16 mM | 97% | 88% | 86% | 
C[C@@H](O)[C@H](NC(=O)[C@H](CCCNC(=N)N)NC(=O)CCCCC1CCSS1)C(=O)N[C@H](C(=O)N[C@@H](CCCCN)C(=O)N[C@@H](CO)C(N)=O)[C@@H](C)O (mixture of isomers) [Peptide 31, Lip-Arg-Thr-Thr-Lys-Ser- NH2] | 3.23 ± 0.16 mM | 4.57 ± 0.23 mM | 5.59 ± 0.28 mM | 107% | 112% | 117% | 
CCCCCCCCCCCCCCCC(=O)N[C@@H](CCCNC(=N)N)C(=O)N[C@H](C(=O)N[C@H](C(=O)N[C@@H](CCCNC(=N)N)C(=O)N[C@@H](CO)C(=O)O)[C@@H](C)O)[C@@H](C)O [Peptide 20, Pal-Arg-Thr-Thr-Arg-Ser-OH] (HELM PEPTIDE1{[CCCCCCCCCCCCCCCC(=O)[*:2]].R.T.T.R.S}$$$$V2.0) |  |  | < 0.2 mM | 90% | 90% | 103% | level of inhibition of plasmin activity [1]: above 90%; level of inhibition of urokinase activity [2]: above 90%; level of inhibition of thrombin activity [3]: above 90%

Continued, in another order:

IC50 [1, 8] | IC50 [2, 9] | IC50 [3, 10] | Molecule | viability at 24 h, 1 µmol/L [4, 11] | viability at 24 h, 10 µmol/L [4, 12] | viability at 24 h, 100 µmol/L [4, 13] | other results
1.89 ± 0.094 mM | 4.67 ± 0.23 mM | 2.36 ± 0.12 mM | C[C@@H](O)[C@H](NC(=O)[C@H](CCCNC(=N)N)NC(=O)CCCCC1CCSS1)C(=O)N[C@H](C(=O)N[C@@H](CCCNC(=N)N)C(=O)N[C@@H](CO)C(N)=O)[C@@H](C)O (mixture of isomers) [Peptide 23, Lip-Arg-Thr-Thr-Arg-Ser-NH2] | 89% | 79% | 88% | 
0.3 ± 0.015 mM | 7.95 ± 0.4 mM | 2.43 ± 0.12 mM | H-RTTKS-NH2 [Peptide 29, H-Arg-Thr-Thr-Lys-Ser-NH2] | 101% | 111% | 110% | IC50 ([1]; converted from IC50 of Table 1, read-out: -logIC50 Plasmin (converted)): 0.309 mM
0.54 ± 0.027 mM | < 0.2 mM | 2.51 ± 0.13 mM | H-RTTKS-OH [Peptide 25, H-Arg-Thr-Thr-Lys-Ser-OH] | 97% | 87% | 109% | 
0.69 ± 0.035 mM | 3.47 ± 0.17 mM |  | C[C@@H](O)[C@H](NC(=O)[C@H](CCCCN)NC(=O)CCCCC1CCSS1)C(=O)N[C@H](C(=O)N[C@@H](CCCNC(=N)N)C(=O)N[C@@H](CO)C(N)=O)[C@@H](C)O (mixture of isomers) [Peptide 15, Lip-Lys-Thr-Thr-Arg-Ser-NH2] |  |  |  | IC50 [3]: 4.11 ± 0.21 mM; viability at 24 h, 1 µmol/L [4]: 112%; viability at 24 h, 10 µmol/L [4]: 122%; viability at 24 h, 100 µmol/L [4]: 115%
0.53 ± 0.026 mM | 9.15 ± 0.46 mM | 7.04 ± 0.35 mM | H-KTTKS-NH2 [Peptide 5, H-Lys-Thr-Thr-Lys-Ser-NH2] | 91% | 91% | 100% | 
